Data published in patent US10413505B1, “Pharmaceutical compositions and methods of using the same” (priority 2017, dated 2019).
Counter-ions that a name gives are not always drawn.

System: healthy adult subjects
Test: Example 11 ECG (QT/QTc) crossover study
Description: This was a single-dose, partially blinded, randomized, four-period, four-treatment, crossover study in which 24 healthy adult subjects received separate single doses of cocaine topical solution (8%), cocaine topical solution (4%), placebo, and moxifloxacin HCl tablet (400 mg) in four study periods. Each subject received a different treatment in each study period. Subjects received each of the following treatments in randomized fashion during the four treatment periods: (1) Treatment A: Cocaine hydrochloride, USP, topical solution, 8%; Dose=320 mg (80 mg/mL×4 mL); (2) Treatment B: Cocaine hydrochloride, USP, topical solution, 4%; Dose=160 mg (40 mg/mL×4 mL); (3) Treatment C: Placebo; and (4) Treatment D: AVELOX® (moxifloxacin hydrochloride); Dose=400 mg (1×400 mg tablet).
Treatments A, B, and C were blinded, while Treatment D was open label. Each drug administration was separated by a washout period of at least 4 days. […] Moxifloxacin HCl was orally administered along with approximately 240 mL (8 fl oz) of room temperature water.
A 25-hour continuous 12-lead ECG recording was performed on Day 1, starting 1 hour before dosing. At the designated time points, up to 10 replicate ECGs were extracted and intervals were measured using the High Precision QT technique. […] During protocol-specified ECG extraction windows, 10-second digital 12-lead ECG tracings were extracted from continuous recordings (preceded by a 10-minute supine rest period) at the following time points: predose (3 time points) and 20 minutes (end of cocaine dose; immediately after pledget removal), 40 minutes, and at 1, 1.25, 1.5, 2, 2.5, 3, 4, 6, 8, 12, and 24 hours after pledget insertion/moxifloxacin dosing.
The primary ECG endpoint was ΔQTcF. ΔQTcF is the QTc corrected for heart rate by the Fridericia method. The term “QTc”, as used herein, refers to the duration of the QT interval adjusted for the patient's heart rate.
The secondary ECG endpoints were: change-from-baseline heart rate (“HR”), time from beginning of the P-wave to the beginning of the next QRS complex (“PR”), deflections in the tracing of the electrocardiogram comprising the Q, R, and S waves that represent depolarization of the ventricles (“QRS”), time elapsed between two consecutive R waves (“RR”), and measure of the time in the tracing of the electrocardiogram between the start of the Q-wave and the end of the T-wave (“QT”); and T-wave morphological changes.

[1] = 400 mg, 20 min post-dose, QT/QTc Population
[2] = 400 mg, 40 min post-dose, QT/QTc Population
[3] = 400 mg, 1 hour post-dose, QT/QTc Population
[4] = 400 mg, 1.25 hour post-dose, QT/QTc Population
[5] = 400 mg, 1.5 hour post-dose, QT/QTc Population
[6] = 400 mg, 2 hours post-dose, QT/QTc Population
[7] = 400 mg, 3 hours post-dose, QT/QTc Population
[8] = 400 mg, 4 hours post-dose, QT/QTc Population
[9] = 400 mg, 6 hours post-dose, QT/QTc Population
[10] = 400 mg, 8 hours post-dose, QT/QTc Population
[11] = 400 mg, 12 hours post-dose, QT/QTc Population
[12] = 400 mg, 24 hours post-dose, QT/QTc Population
[13] = 400 mg, […] post-dose, QT/QTc Population
[14] = 20 min post-dose, QT/QTc Population
[15] = 40 min post-dose, QT/QTc Population
[16] = 1 hour post-dose, QT/QTc Population
[17] = 1.25 hour post-dose, QT/QTc Population
[18] = 1.5 hour post-dose, QT/QTc Population
[19] = 2 hours post-dose, QT/QTc Population
[20] = 3 hours post-dose, QT/QTc Population
[21] = 4 hours post-dose, QT/QTc Population
[22] = 6 hours post-dose, QT/QTc Population
[23] = 8 hours post-dose, QT/QTc Population
[24] = 12 hours post-dose, QT/QTc Population
[25] = 24 hours post-dose, QT/QTc Population
[26] = […] post-dose, QT/QTc Population

## COc1c(N2C[C@@H]3CCCN[C@@H]3C2)c(F)cc2c(=O)c(C(=O)O)cn(C3CC3)c12 [moxifloxacin HCl, moxifloxacin hydrochloride]
400 mg oral, 4 hours post-dosing
  peak ΔQTcF: 14.4 ms
400 mg oral, 4 h post-dose
  peak ΔΔQTcF: 15.2 ms
[1]
  ΔPR, change-from-baseline PR, LSMean: 1.1 ms
  ΔQRS, change-from-baseline QRS, LSMean: -0.5 ms
  ΔQT, change-from-baseline QT, LSMean: -5.3 ms
  ΔRR, change-from-baseline RR, LSMean: -18.8 ms
  ΔΔPR, placebo-corrected change-from-baseline PR, LSMean: 2.1 ms
[2]
  ΔPR, change-from-baseline PR, LSMean: 1.4 ms
  ΔQRS, change-from-baseline QRS, LSMean: -0.5 ms
  ΔQT, change-from-baseline QT, LSMean: 2.2 ms
  ΔRR, change-from-baseline RR, LSMean: -15.8 ms
  ΔΔPR, placebo-corrected change-from-baseline PR, LSMean: 0.1 ms
[3]
  ΔPR, change-from-baseline PR, LSMean: 0.8 ms
  ΔQRS, change-from-baseline QRS, LSMean: -0.4 ms
  ΔQT, change-from-baseline QT, LSMean: 3.9 ms
  ΔRR, change-from-baseline RR, LSMean: -24.5 ms
  ΔΔPR, placebo-corrected change-from-baseline PR, LSMean: 0.1 ms
[4]
  ΔPR, change-from-baseline PR, LSMean: 0.5 ms
  ΔQRS, change-from-baseline QRS, LSMean: 0.2 ms
  ΔQT, change-from-baseline QT, LSMean: 3.9 ms
  ΔRR, change-from-baseline RR, LSMean: -35.1 ms
  ΔΔPR, placebo-corrected change-from-baseline PR, LSMean: -0.2 ms
[5]
  ΔPR, change-from-baseline PR, LSMean: -0.7 ms
  ΔQRS, change-from-baseline QRS, LSMean: 0.0 ms
  ΔQT, change-from-baseline QT, LSMean: 0.8 ms
  ΔRR, change-from-baseline RR, LSMean: -58.5 ms
  ΔΔPR, placebo-corrected change-from-baseline PR, LSMean: -1.9 ms
[6]
  ΔPR, change-from-baseline PR, LSMean: 0.2 ms
  ΔQRS, change-from-baseline QRS, LSMean: 0.0 ms
  ΔQT, change-from-baseline QT, LSMean: 4.2 ms
  ΔRR, change-from-baseline RR, LSMean: -33.8 ms
  ΔΔPR, placebo-corrected change-from-baseline PR, LSMean: 0.2 ms
[7]
  ΔPR, change-from-baseline PR, LSMean: -2.1 ms
  ΔQRS, change-from-baseline QRS, LSMean: 0.0 ms
  ΔQT, change-from-baseline QT, LSMean: 7.5 ms
  ΔRR, change-from-baseline RR, LSMean: -41.1 ms
  ΔΔPR, placebo-corrected change-from-baseline PR, LSMean: -2.1 ms
[8]
  ΔPR, change-from-baseline PR, LSMean: -1.5 ms
  ΔQRS, change-from-baseline QRS, LSMean: -0.0 ms
  ΔQT, change-from-baseline QT, LSMean: 6.7 ms
  ΔRR, change-from-baseline RR, LSMean: -121.3 ms
  ΔΔPR, placebo-corrected change-from-baseline PR, LSMean: -1.4 ms
[9]
  ΔPR, change-from-baseline PR, LSMean: -4.2 ms
  ΔQRS, change-from-baseline QRS, LSMean: -0.5 ms
  ΔQT, change-from-baseline QT, LSMean: -9.5 ms
  ΔRR, change-from-baseline RR, LSMean: -121.3 ms
  ΔΔPR, placebo-corrected change-from-baseline PR, LSMean: -2.6 ms
[10]
  ΔPR, change-from-baseline PR, LSMean: -5.2 ms
  ΔQRS, change-from-baseline QRS, LSMean: -0.5 ms
  ΔQT, change-from-baseline QT, LSMean: -7.6 ms
  ΔRR, change-from-baseline RR, LSMean: -88.8 ms
  ΔΔPR, placebo-corrected change-from-baseline PR, LSMean: -1.4 ms
[11]
  ΔPR, change-from-baseline PR, LSMean: -4.7 ms
  ΔQRS, change-from-baseline QRS, LSMean: -0.0 ms
  ΔQT, change-from-baseline QT, LSMean: -14.0 ms
  ΔRR, change-from-baseline RR, LSMean: -151.8 ms
  ΔΔPR, placebo-corrected change-from-baseline PR, LSMean: -3.9 ms
[12]
  ΔPR, change-from-baseline PR, LSMean: -0.9 ms
  ΔQRS, change-from-baseline QRS, LSMean: 0.1 ms
  ΔQT, change-from-baseline QT, LSMean: -6.6 ms
  ΔRR, change-from-baseline RR, LSMean: -65.8 ms
  ΔΔPR, placebo-corrected change-from-baseline PR, LSMean: 1.7 ms
400 mg, QT/QTc Population
  T-wave morphology treatment emergent changes: Biphasic, Subject count: 0
  T-wave morphology treatment emergent changes: Biphasic, Timepoint count: 0
  T-wave morphology treatment emergent changes: Flat, Subject count: 0
  T-wave morphology treatment emergent changes: Flat, Timepoint count: 0
  T-wave morphology treatment emergent changes: Normal (−), Subject count: 0
  T-wave morphology treatment emergent changes: Normal (−), Timepoint count: 0
  T-wave morphology treatment emergent changes: Notched (+), Subject count: 0
  T-wave morphology treatment emergent changes: Notched (+), Timepoint count: 0
  T-wave morphology treatment emergent changes: Notched (−), Subject count: 0
  T-wave morphology treatment emergent changes: Notched (−), Timepoint count: 0
[13]
  ΔPR, change-from-baseline PR, LSMean: -0.8 ms
  ΔQRS, change-from-baseline QRS, LSMean: -0.3 ms
  ΔQT, change-from-baseline QT, LSMean: 6.1 ms
  ΔRR, change-from-baseline RR, LSMean: -37.0 ms
  ΔΔPR, placebo-corrected change-from-baseline PR, LSMean: 0.5 ms
[14]
  ΔHR (change-from-baseline HR), LSMean: 1.0 bpm
  ΔQTcF (change-from-baseline QTcF), LSMean: -3.1 ms
  ΔΔHR (placebo-corrected change-from-baseline HR), LSMean: −4.4 bpm
  ΔΔQTcF (placebo-corrected change-from-baseline QTcF), LSMean: -0.1 ms
[15]
  ΔHR (change-from-baseline HR), LSMean: 1.3 bpm
  ΔQTcF (change-from-baseline QTcF), LSMean: 4.4 ms
  ΔΔHR (placebo-corrected change-from-baseline HR), LSMean: 0.4 bpm
  ΔΔQTcF (placebo-corrected change-from-baseline QTcF), LSMean: 5.4 ms
[16]
  ΔHR (change-from-baseline HR), LSMean: 1.8 bpm
  ΔQTcF (change-from-baseline QTcF), LSMean: 7.4 ms
  ΔΔHR (placebo-corrected change-from-baseline HR), LSMean: 1.7 bpm
  ΔΔQTcF (placebo-corrected change-from-baseline QTcF), LSMean: 7.8 ms
[17]
  ΔHR (change-from-baseline HR), LSMean: 2.6 bpm
  ΔQTcF (change-from-baseline QTcF), LSMean: 9.1 ms
  ΔΔHR (placebo-corrected change-from-baseline HR), LSMean: 2.7 bpm
  ΔΔQTcF (placebo-corrected change-from-baseline QTcF), LSMean: 8.7 ms
[18]
  ΔHR (change-from-baseline HR), LSMean: 3.9 bpm
  ΔQTcF (change-from-baseline QTcF), LSMean: 8.4 ms
  ΔΔHR (placebo-corrected change-from-baseline HR), LSMean: 3.8 bpm
  ΔΔQTcF (placebo-corrected change-from-baseline QTcF), LSMean: 7.9 ms
[19]
  ΔHR (change-from-baseline HR), LSMean: 2.3 bpm
  ΔQTcF (change-from-baseline QTcF), LSMean: 9.0 ms
  ΔΔHR (placebo-corrected change-from-baseline HR), LSMean: 3.1 bpm
  ΔΔQTcF (placebo-corrected change-from-baseline QTcF), LSMean: 8.9 ms
[20]
  ΔHR (change-from-baseline HR), LSMean: 2.6 bpm
  ΔQTcF (change-from-baseline QTcF), LSMean: 13.2 ms
  ΔΔHR (placebo-corrected change-from-baseline HR), LSMean: 2.5 bpm
  ΔΔQTcF (placebo-corrected change-from-baseline QTcF), LSMean: 13.0 ms
[21]
  ΔHR (change-from-baseline HR), LSMean: 3.4 bpm
  ΔQTcF (change-from-baseline QTcF), LSMean: 14.4 ms
  ΔΔHR (placebo-corrected change-from-baseline HR), LSMean: 1.6 bpm
  ΔΔQTcF (placebo-corrected change-from-baseline QTcF), LSMean: 15.2 ms
[22]
  ΔHR (change-from-baseline HR), LSMean: 8.2 bpm
  ΔQTcF (change-from-baseline QTcF), LSMean: 7.2 ms
  ΔΔHR (placebo-corrected change-from-baseline HR), LSMean: 2.5 bpm
  ΔΔQTcF (placebo-corrected change-from-baseline QTcF), LSMean: 10.9 ms
[23]
  ΔHR (change-from-baseline HR), LSMean: 5.7 bpm
  ΔQTcF (change-from-baseline QTcF), LSMean: 4.4 ms
  ΔΔHR (placebo-corrected change-from-baseline HR), LSMean: 1.6 bpm
  ΔΔQTcF (placebo-corrected change-from-baseline QTcF), LSMean: 11.5 ms
[24]
  ΔHR (change-from-baseline HR), LSMean: 10.7 bpm
  ΔQTcF (change-from-baseline QTcF), LSMean: 7.3 ms
  ΔΔHR (placebo-corrected change-from-baseline HR), LSMean: 1.5 bpm
  ΔΔQTcF (placebo-corrected change-from-baseline QTcF), LSMean: 9.6 ms
[25]
  ΔHR (change-from-baseline HR), LSMean: 4.2 bpm
  ΔQTcF (change-from-baseline QTcF), LSMean: 2.4 ms
  ΔΔHR (placebo-corrected change-from-baseline HR), LSMean: −0.0 bpm
  ΔΔQTcF (placebo-corrected change-from-baseline QTcF), LSMean: 7.5 ms
[26]
  ΔHR (change-from-baseline HR), LSMean: 2.6 bpm
  ΔQTcF (change-from-baseline QTcF), LSMean: 11.5 ms
  ΔΔHR (placebo-corrected change-from-baseline HR), LSMean: 0.9 bpm
  ΔΔQTcF (placebo-corrected change-from-baseline QTcF), LSMean: 9.8 ms
